These are literature values, as cited in publication PMC5944028, “Nonclinical and clinical pharmacological characterization of the potent and selective cathepsin K inhibitor MIV-711” (Journal of Translational Medicine, 2018).

One may read the IC50 as the concentration needed to halve the response being measured.

The subject of one series is urinary CTX-II. The note with it: postmenopausal women with osteoporosis, 12 months; cited from earlier work.
The conditions of series [1]: human, weekly dose of 50 mg, cited from earlier work.

For `C[C@@H]1CS/C(=N\NC(=O)C(=O)[C@@H](NC(=O)C2CCCCCC2)C2CCOCC2)N1C` [ONO-5334, reference compound], the “Reduction of urinary CTX-II” value in the series on urinary CTX-II is on record as 50%. Regarding `CC(C)(F)C[C@H](N[C@@H](c1ccc(-c2ccc(S(C)(=O)=O)cc2)cc1)C(F)(F)F)C(=O)NC1(C#N)CC1` [odanacatib], the “mean plasma AUC0–24h” value in series [1] is 6 to 7 µM·h. In series [1] (read-out: trough plasma IC50), the IC50 is 50 to 60 nM.
